The values that follow come from US11014915B2, “Selective estrogen receptor degrader” (SUN PHARMA ADVANCED RESEARCH COMPANY LIMITED, priority 2019, dated 2021).

Series [1] concerns MCF-7 cells harboring mutant ER (WT/D538G). Nature of the series: MCF-7 cell growth inhibition assay, D538G. The note with it: Homo sapiens, MCF7, 168 h; MCF-7 D538G, seven-day incubation. In kind it is cell-based. The protocol:
(§1) MCF-7 Cell Growth Inhibition Assay:
(§2) The anti-proliferative activity of the test compounds were evaluated in a growth inhibition assay. Briefly, MCF-7 cells harboring ER wild type (Wt), and MCF-7 cells harboring mutant ER (WT/D538G and WT/Y537S) were seeded at a density of 1000 cells/well in 96-well plate in phenol red free RPMI1640 medium supplemented with 10% charcoal stripped fetal bovine serum. The cells were incubated overnight at 37° C. and 5% CO2 followed by the addition of varying concentrations of the test compounds in DMSO. Final concentration of DMSO in the well was 0.5%. Following a seven-day incubation of cells with the test compounds, cell viability was assessed using a Prestoblue™ reagent. The percent inhibition of cell proliferation was calculated by normalizing the cell viability using a vehicle control as 0% inhibition of proliferation.

The nature of series [2]: Pharmacokinetic study in female SD rats, single oral dose. The series is classed as in vivo. The note with it: rat, 50 mg/kg p.o.; for AUC(0-t) / Cmax / Tmax / half-life / AUC(0-inf): female, SD, plasma, po; for AUC(0-inf): read-out: AUCinf_obs. From the text: In drug discovery it is very important to have good oral bioavailability and pharmacokinetic (PK) profile of the compound in order to become a good drug candidate for oral administration. Many compounds having potent in vitro efficacy fail to show therapeutic efficacy in human body. The lack of therapeutic efficacy of these compounds is mainly due to their inappropriate pharmacokinetic properties, such as low bioavailability, short half-life, rapid metabolism, or rapid clearance resulting in a short duration of action. Therefore a good drug candidate should have not only good potency, but also a good pharmacokinetic profile. The pharmacokinetic profile of the compounds of Formula Ia and Ib were determined as per the procedure provided below.
PK profiles were evaluated in female SD rats (n=2) following a single oral dose administration. Rats were fasted for 12-13 hours prior to dosing and feed was provided 2 hours after oral treatments. Dose formulations of compounds were prepared in Tween 80 (0.4% v/v of the total volume of suspension) in 0.5% carboxymethyl cellulose (CMC). Treatments were given at 50 mg/kg, p.o. To evaluate the plasma concentration, 0.2 mL blood was drawn from the rats through the retro-orbital plexus at 0.25, 1, 4, 8, 24, 48 and 72 hour time points post-treatment in Eppendorf tubes containing sodium heparin as an anticoagulant (100 IU/mL), and centrifuged immediately at 8500 rpm for 7 min at 4° C. Plasma was separated and stored at −70° C., until analysis. The analysis of samples was performed as per the method given below:
Working Calibration Standard and Quality Control Standards Preparation:
Working calibration standards were prepared having 0.10, 0.20, 2.00, 4.00, 8.00, 12.00, 16.00, and 20.00 μg/mL concentrations. Quality control standards were prepared at concentrations of […].
Preparation of Working Internal Standards (WIS):
Accurately weighed 5 mg of Carbamazepine was transferred into a 100 mL volumetric flask, dissolved and diluted up to the mark with diluent (0.1% formic acid in water:acetonitrile 30:70 v/v). A WIS of 5 μg/mL was prepared from the above solution.
5 μL of working standards and quality controls were spiked into 95 μL of blank plasma. 25 μl from the above spiked standards and quality controls were aliquoted into microcentrifuge tubes. 25 μL of study samples were also aliquoted into a micro centrifuge tube. 5 μL of WIS was added in zero standards to linearity and study samples except blank. The samples were further vortexed for 10-15 seconds. 150 μL of Milli Q water was added to all prepared samples and vortexed for 10-15 seconds. Samples were loaded on a preconditioned cartridge (preconditioning was done with 1 mL methanol followed by 1 mL Milli Q water). Cartridges were washed with 2×1 mL of Milli Q water. Elution was done with a 1 mL elution solution {acetonitrile: 0.1% formic acid solution (70:30)} in HPLC vials.
Chromatographic separation was achieved on Chiral pack ID (250*4.6 mm, 5μ) with a flow rate of 1.25 mL/min with splitter and injection volume of 20 μL. The sample cooler was maintained at 10° C. The column oven temperature was set to 30° C. The mobile phase consisted of:
Mobile phase A: 1.47 g of ammonium bicarbonate into 1 L of water, 1 ml DEA, pH 9.2±0.1
Mobile phase B: methanol,
wherein mobile phase A was mixed with mobile phase B in the ratio of 30:70 v/v, respectively. The retention time of the compound of Formula Ia, compound of Formula Ib and the internal standard were about 8.7, 7.6 and 4.2 min, respectively. The overall chromatographic run time was 16 minutes.
Detection was performed by tandem mass spectrometry (TSQ Quantum, Discovery MAX, Thermo Electron Corporation) and peak areas were integrated using LCquan software version 2.9 QF1. […]

Series [3] deals with MCF-7 cells harboring ER wild type (Wt). Nature of the series: MCF-7 cell growth inhibition assay, wild type. In kind it is cell-based, human. The note with it: for IC50: Homo sapiens, MCF7, 168 h, MCF-7 Wt, seven-day incubation. The protocol: as §1, §2

One may read the IC50 as the concentration needed to halve the response being measured. Read a low IC50 as inhibition by little substance. One may read the AUC(0-t) as the area under the concentration-time curve up to a stated or last time point. A low value points to less exposure. For orientation: Cmax means the peak of the concentration-time curve. What is called Tmax is the time from dosing to the highest level. Broadly, the half-life is how long it takes for the measured level to halve. A lower half-life goes with fast loss.

For the molecule `CC1=C(c2cc(F)cc(F)c2)[C@H](c2ccc(/C=C/CN3CC(CF)C3)cc2)Oc2cc(O)ccc21` [Formula Ia, (2S)-3-(3,5-difluorophenyl)-2-[4-[(E)-3-[3-(fluoromethyl)azetidin-1-yl]prop-1-enyl]phenyl]-4-methyl-2H-chromen-7-ol], the IC50 in series [1] came out at 2.2 nM. For the same molecule, in series [2], the AUC(0-t) was 7580 ng·h/mL, the highest level (Cmax) was 343 ng/mL, the Tmax came out at 4 h and the half-life is 26 h. For the same molecule, in series [2], the AUC(0-inf) was 9800 ng·h/mL, the “AUClast of Formula Ia relative to Formula Ib” value is “about 4.2 fold” and the “Cmax of Formula Ia relative to Formula Ib” value is “about 2.9 fold”. Half-maximal inhibition in series [3] (IC50) was put at 0.3 nM. Also, the “Potency of Formula Ia relative to Formula Ib in MCF-7 growth inhibition assay” value in series [3] (wild type) was “about 233 times”.
The molecule `CC1=C(c2cc(F)cc(F)c2)[C@@H](c2ccc(/C=C/CN3CC(CF)C3)cc2)Oc2cc(O)ccc21` [Formula Ib, (2R)-3-(3,5-difluorophenyl)-2-[4-[(E)-3-[3-(fluoromethyl)azetidin-1-yl]prop-1-enyl]phenyl]-4-methyl-2H-chromen-7-ol] showed an IC50 in series [1] of 345 nM. Besides, in series [2], the AUC(0-t) worked out at 1800 ng·h/mL, the Cmax was determined as 119 ng/mL, the Tmax came out at 4 h and the half-life is 10 h. Moreover, the AUC(0-inf) in series [2] was determined as 2360 ng·h/mL. Half-maximal inhibition in series [3] (IC50) was put at 69.9 nM.
